Laboratory results as given in PMC3988658 (Pathogens and disease, 2014).
Starred links: 1 amine or outer side, 2 acyl side, 3 side chain; linkers in the order of their positions; H or OH if unused. Positions of bridges follow the written chain, without caps; N, C: chain ends. Non-standard residues stand in square brackets, D forms with d. Residues, ends and D or L forms follow the SMILES beside them. *: point of attachment. Ileψ(thiazoline)Cys = CC[C@H](C)[C@H](N)C1=N[C@H](C(=O)*)CS1; X2 = CCC(=O)CC(O)C[C@@H](C)C[C@H](N[*:1])C(=O)[*:2]; Alaψ(CH2NMeCH2CH2OH) = C[C@@H](CN(C)CCO)N*; dOrn = NCCC[C@@H](N)C(=O)O; X1 = CCCCCCCCC(C)C(=O)*; Aib = CC(C)(N)C(=O)O

How the values were obtained:
[1] = system: C. albicans tet-NRG1 strain filamentation; type: cell-based, Candida albicans; settings: YPD plus DOX, dose response
[2] = system: C. albicans wild-type strain SC5314 biofilm formation; assay: microbe, parasite or virus in culture; type: cell-based, Candida albicans; settings: for Inhibition of biofilm formation: NCI Natural set, dose response; for IC50: SC5314, 24 h
in vitro = settings: human
C. albicans = settings: cited from earlier work
[3] = system: Human hepatocellular carcinoma (HepG2) cells

**Q.** Which “Inhibition of filamentation” value [1] does the source give for `CC(=O)O[C@@H]1C[C@H]2O[C@@H]3C=C(C)CC[C@]3(C)[C@]1(C)[C@]21CO1` [Compound 1, Trichoderonin] here?
**A.** Its value is “inhibited filamentation in a dose-response manner”.

**Q.** Which “Inhibition of biofilm formation” value [2] does the source give for `COc1ccc(C[C@H]2NC[C@H](O)[C@H]2OC(C)=O)cc1` [Compound 2, Anisomycin] here?
**A.** The value was “inhibited biofilm formation only”.

**Q.** With `CC[C@H](C)[C@H](N)C1=N[C@H](C(=O)N[C@@H](CC(C)C)C(=O)N[C@H](CCC(=O)O)C(=O)N[C@H](C(=O)N[C@H]2CCCCNC(=O)[C@H](CC(N)=O)NC(=O)[C@@H](CC(=O)O)NC(=O)[C@H](Cc3cnc[nH]3)NC(=O)[C@@H](Cc3ccccc3)NC(=O)[C@H]([C@@H](C)CC)NC(=O)[C@@H](CCCN)NC2=O)[C@@H](C)CC)CS1` [Compound 4, Bacitracin] ({Ileψ(thiazoline)Cys}-L[dE]IK[dOrn]I[dF]H[dD]N; lactam 4-C (inferred)) as the compound, how does the CC50 at 24 hr (in vitro) read?
**A.** Its CC50 at 24 hr is over 100000 nM.

**Q.** With `CC[C@H](C)[C@H](N)C1=N[C@H](C(=O)N[C@@H](CC(C)C)C(=O)N[C@H](CCC(=O)O)C(=O)N[C@H](C(=O)N[C@H]2CCCCNC(=O)[C@H](CC(N)=O)NC(=O)[C@@H](CC(=O)O)NC(=O)[C@H](Cc3c[nH]cn3)NC(=O)[C@@H](Cc3ccccc3)NC(=O)[C@H]([C@@H](C)CC)NC(=O)[C@@H](CCCN)NC2=O)[C@@H](C)CC)CS1` [Compound 4, Bacitracin] ({Ileψ(thiazoline)Cys}-L[dE]IK[dOrn]I[dF]H[dD]N; lactam 4-C; N-terminus assumed) as the compound, how does the “Inhibition of biofilm formation” value [2] read?
**A.** The value was “inhibited biofilm formation only”.

**Q.** And the IC50 [2]?
**A.** Its IC50 is 2130 nM.

**Q.** With `CO[C@H]1C[C@@H]2CC[C@@H](C)[C@@](O)(O2)C(=O)C(=O)N2CCCC[C@H]2C(=O)O[C@H]([C@H](C)C[C@@H]2CC[C@@H](O)[C@H](OC)C2)CC(=O)[C@H](C)/C=C(\C)[C@@H](O)[C@@H](OC)C(=O)[C@H](C)C[C@H](C)/C=C/C=C/C=C/1C` [Compound 5, Rapamune (rapamycin, sirolimus)] as the compound, how does the “Inhibition of filamentation” value [1] read?
**A.** The value was “inhibited filamentation in a dose-response manner”.

**Q.** What about the IC50 ([2]; Candida albicans) of the same compound?
**A.** Its IC50 is 514 nM.

**Q.** And the “Effect on the morphogenic transition” value (C. albicans; most liquid hypha-inducing media, ref Bastidas, Heitman & Cardenas, 2009)?
**A.** Its value is “no effect on the morphogenic transition”.

**Q.** For `CC(C)[C@@H]1NC(=O)[C@H](C)OC(=O)[C@@H](C(C)C)NC(=O)[C@@H](C(C)C)OC(=O)[C@H](C(C)C)NC(=O)[C@H](C)OC(=O)[C@@H](C(C)C)NC(=O)[C@@H](C(C)C)OC(=O)[C@H](C(C)C)NC(=O)[C@H](C)OC(=O)[C@@H](C(C)C)NC(=O)[C@@H](C(C)C)OC1=O` [Compound 6, Valinomycin], which “Inhibition of biofilm formation” value [2] is on record?
**A.** Its value is “inhibited biofilm formation only”.

**Q.** And the “Inhibition of hyphal growth” value (C. albicans; C. albicans, ref Watanabe, Azuma, Igarashi & Ooshima, 2005)?
**A.** Its value is “inhibit hyphal growth”.

**Q.** And the CC50 (in vitro)?
**A.** The CC50 was 2870 nM.

**Q.** With `CC(NCCN(C)C)C1CCC2C3CCc4cc(O)ccc4C3CCC12C` (stereo not drawn) [Compound 8, 17-[1-[2-(dimethylamino)ethylamino]ethyl]-13-methyl-6,7,8,9,11,12,14,15, 16,17-decahydrocyclopenta[a]phenanthren-3-ol] as the compound, how does the IC50 ([2]; Candida albicans) read?
**A.** Its IC50 is 9.7 nM.

**Q.** What about the CC50 at 24 h (in vitro) of the same compound?
**A.** The CC50 at 24 h was 8080 nM.

**Q.** With `CC1OC(CC(=O)O)Cc2c(O)c3c(c(O)c21)C(=O)C=C(C1=CC(=O)c2c(O)c4c(c(O)c2C1=O)CC(CC(=O)O)OC4C)C3=O` (stereo not drawn) [Compound 13, 2-[7-[3-(carboxymethyl)-5,10-dihydroxy-1-methyl-6,9-dioxo-3,4-dihydro-1H-benzo[g]isochromen-7-yl]-5,10-dihydroxy-1-methyl-6,9-dioxo-3,4-dihydro-1H-benzo[g]isochromen-3-yl]acetic acid] as the compound, how does the IC50 ([2]; Candida albicans) read?
**A.** Its IC50 is 3310 nM.

**Q.** With `CCN(CC)CCN1c2ccccc2Sc2ccc3ccccc3c21` [Compound 14, 2-benzo[a]phenothiazin-12-yl-N,N-diethylethanamine] as the compound, how does the IC50 ([2]; Candida albicans) read?
**A.** Its IC50 is 3800 nM.

**Q.** Which results are given for `CCCCCCCCC(C)C(=O)N1CCC[C@H]1C(=O)N[C@@H](C[C@H](C)CC(O)CC(=O)CC)C(=O)N[C@@H](C)C(=O)NC(C)(C)C(=O)NC(C)(C)C(=O)N[C@H](C(=O)N[C@@H](C)C(=O)NC(C)(C)C(=O)NC(C)(C)C(=O)N[C@@H](C)CN(C)CCO)C(C)C` (stereo partly drawn) [Compound 19, Trichopolyn-B] (X1-P[X2]A[Aib][Aib]VA[Aib][Aib]-{Alaψ(CH2NMeCH2CH2OH)}; N-terminus and C-terminus assumed)?
**A.** IC50 [2]: 666 nM; CC50 (in vitro): 2990 nM

**Q.** For `CCCCCCCCCCCCCCC[C@@H](O)C[N+](C)(C)CCO` [Compound 21, 2-hydroxyethyl-[(2R)-2-hydroxyheptadecyl]-dimethylazanium;iodide], which CC50 [3] is on record?
**A.** Its CC50 is 10000 nM.

**Q.** For `N#Cc1cn([C@@H]2O[C@H](CO)[C@@H](O)[C@H]2O)c2ncnc(N)c12` [Compound 23, Vengicide (Unamycin B, Toyocamycin)], which IC50 ([2]; Candida albicans) is on record?
**A.** Its IC50 is 1040 nM.

**Q.** And the CC50 (in vitro)?
**A.** Its CC50 is under 1560 nM.

**Q.** What does the source list for `COc1cc2cc(C(=O)N3CC(COS(C)(=O)=O)c4ccc(O)cc43)[nH]c2c(OC)c1OC` (stereo not drawn) [Compound 27, 6-Hydroxy-3-((methanesulfonyloxy) Methyl)-1-((5,6,7-trimethoxyindol-2-yl)carbonyl)indoline]?
**A.** IC50 ([2]; Candida albicans): 495 nM; CC50 (in vitro): < 1560 nM

**Q.** With `CCCCCCCCCCCCCCC(O)C[N+](C)(CCO)CCO` (stereo not drawn) [Compound 29, Hexadecanaminium, 2-hydroxy-N,N-bis(2-hydroxyethyl)-N-methyl-, chloride] as the compound, how does the CC50 [3] read?
**A.** Its CC50 is 13900 nM.

**Q.** For Nanaomycin [Compound 3], which “Inhibition of filamentation” value [1] is on record?
**A.** The value was “inhibited filamentation in a dose-response manner”.
